Data taken from patent US20170087174A1, “COMBINATION THERAPY REGIMEN FOR TREATMENT OF HCV” (JANSSEN PHARMACEUTICALS, INC., priority 2015, published 2017).
pIC50: −log10 of the molar value.

Legend:
[1] = Phase 2a open-label combination study: pharmacokinetics (exposure); assay type: in vivo, human
Experimental: A randomized, Phase 2a, open-label study was carried out to evaluate the safety, pharmacokinetics and efficacy of the combination of Compound (III), Odalasvir and Simeprevir in Genotype 1 treatment-naïve subjects with chronic hepatitis C. Other treatment-naïve subjects included Genotype 2, 3, 4, 5 and 6.
The aim of the study was to determine the efficacy, pharmacokinetics (PK), and safety of Compound (III)+Odalasvir±SMV in HCV-infected subjects.
This was an open-label study evaluating various dosing regimens of Compound (III)+Odalasvir±SMV for 6-8 weeks in treatment-naïve HCV-infected subjects with varying clinical characteristics (e.g., GT 1 or 3, presence/absence of compensated Child Pugh A cirrhosis). Efficacy, PK and safety evaluations were conducted during and through 24 weeks post dosing. Up to 15 cohorts were enrolled; data was generated from cohorts that have completed dosing.

CYP2C8 = molecular target: T1, CYP2C8 (Homo sapiens, UniProt P10632); assay: CYP2C8 inhibition; assay type: in vitro ADME; conditions: up to 10 μM
T1 sequence (P10632 1-490): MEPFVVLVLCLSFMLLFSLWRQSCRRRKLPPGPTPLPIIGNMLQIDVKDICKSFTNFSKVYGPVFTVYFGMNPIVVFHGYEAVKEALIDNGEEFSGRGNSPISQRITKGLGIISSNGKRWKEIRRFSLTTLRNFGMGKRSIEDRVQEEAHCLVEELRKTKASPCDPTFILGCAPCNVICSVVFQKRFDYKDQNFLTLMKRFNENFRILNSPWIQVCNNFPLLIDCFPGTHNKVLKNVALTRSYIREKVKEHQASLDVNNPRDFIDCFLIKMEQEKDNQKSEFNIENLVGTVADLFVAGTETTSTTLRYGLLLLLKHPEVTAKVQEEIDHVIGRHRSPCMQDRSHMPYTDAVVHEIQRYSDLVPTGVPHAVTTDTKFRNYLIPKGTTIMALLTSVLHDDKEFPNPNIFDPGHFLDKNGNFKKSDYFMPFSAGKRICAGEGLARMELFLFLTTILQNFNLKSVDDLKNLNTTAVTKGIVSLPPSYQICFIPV

CYP3A4/5 = CYP3A4/5 inhibition; assay type: in vitro ADME; conditions: up to 10 μM
1A2 = molecular target: T2, 1A2 (Homo sapiens, UniProt P05177); assay: CYP1A2 inhibition; assay type: in vitro ADME; conditions: up to 10 μM
T2 sequence (P05177 1-516): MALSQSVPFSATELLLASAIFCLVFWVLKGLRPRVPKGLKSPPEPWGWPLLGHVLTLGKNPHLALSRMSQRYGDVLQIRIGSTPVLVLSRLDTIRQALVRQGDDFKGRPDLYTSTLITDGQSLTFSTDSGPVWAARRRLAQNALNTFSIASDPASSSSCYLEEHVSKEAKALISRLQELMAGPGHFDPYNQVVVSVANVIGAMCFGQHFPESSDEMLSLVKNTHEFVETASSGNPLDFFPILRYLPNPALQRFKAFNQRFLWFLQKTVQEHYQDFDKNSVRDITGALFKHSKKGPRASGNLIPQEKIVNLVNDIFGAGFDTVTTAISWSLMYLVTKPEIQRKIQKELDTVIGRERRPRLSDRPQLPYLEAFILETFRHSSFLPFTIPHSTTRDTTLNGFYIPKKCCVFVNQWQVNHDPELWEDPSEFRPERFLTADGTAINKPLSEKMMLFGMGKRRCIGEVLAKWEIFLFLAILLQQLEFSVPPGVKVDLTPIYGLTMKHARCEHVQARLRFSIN

MRP2 = MRP2 (Homo sapiens, UniProt Q92887); conditions: in vitro, cited from earlier work
MRP2/3 = MRP2/3 (Homo sapiens, UniProt O15438); conditions: in vitro; cited from earlier work
BSEP = BSEP (Homo sapiens, UniProt O95342); conditions: in vitro, cited from earlier work
OATP1B3 = molecular target: T3, OATP1B3 (Homo sapiens, UniProt Q9NPD5); conditions: in vitro; cited from earlier work
T3 sequence (Q9NPD5 1-702): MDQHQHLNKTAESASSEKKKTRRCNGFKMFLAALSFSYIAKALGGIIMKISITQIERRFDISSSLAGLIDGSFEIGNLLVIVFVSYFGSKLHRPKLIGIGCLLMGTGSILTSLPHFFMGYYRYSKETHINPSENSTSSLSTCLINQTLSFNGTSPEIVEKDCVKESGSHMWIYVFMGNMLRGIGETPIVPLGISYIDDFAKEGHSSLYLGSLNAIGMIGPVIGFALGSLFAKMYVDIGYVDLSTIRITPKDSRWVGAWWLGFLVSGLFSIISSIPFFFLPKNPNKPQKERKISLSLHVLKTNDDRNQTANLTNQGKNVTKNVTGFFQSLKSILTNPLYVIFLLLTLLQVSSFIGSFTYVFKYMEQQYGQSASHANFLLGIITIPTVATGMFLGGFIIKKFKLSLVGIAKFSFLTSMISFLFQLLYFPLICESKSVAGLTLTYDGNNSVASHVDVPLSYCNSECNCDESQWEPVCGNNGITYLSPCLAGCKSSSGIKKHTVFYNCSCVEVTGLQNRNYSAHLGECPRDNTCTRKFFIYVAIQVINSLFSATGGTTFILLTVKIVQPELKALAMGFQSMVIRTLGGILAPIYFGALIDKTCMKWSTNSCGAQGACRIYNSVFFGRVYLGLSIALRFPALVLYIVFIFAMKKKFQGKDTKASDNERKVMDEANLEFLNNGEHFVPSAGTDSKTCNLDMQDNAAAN

CYP3A4 = CYP3A4 induction; assay type: in vitro ADME; conditions: up to 10 μM
CYP1A2 = CYP1A2 induction; assay type: in vitro ADME; conditions: up to 10 μM
[2] = system: Digoxin (a pgp-substrate); conditions: SMV co-administered with Digoxin; cited from earlier work
[3] = system: Rosuvastatin (substrate of OATPs & BCRP); conditions: SMV co-administered with Rosuvastatin; cited from earlier work

Sequence of MRP2 (Q92887 whole entry): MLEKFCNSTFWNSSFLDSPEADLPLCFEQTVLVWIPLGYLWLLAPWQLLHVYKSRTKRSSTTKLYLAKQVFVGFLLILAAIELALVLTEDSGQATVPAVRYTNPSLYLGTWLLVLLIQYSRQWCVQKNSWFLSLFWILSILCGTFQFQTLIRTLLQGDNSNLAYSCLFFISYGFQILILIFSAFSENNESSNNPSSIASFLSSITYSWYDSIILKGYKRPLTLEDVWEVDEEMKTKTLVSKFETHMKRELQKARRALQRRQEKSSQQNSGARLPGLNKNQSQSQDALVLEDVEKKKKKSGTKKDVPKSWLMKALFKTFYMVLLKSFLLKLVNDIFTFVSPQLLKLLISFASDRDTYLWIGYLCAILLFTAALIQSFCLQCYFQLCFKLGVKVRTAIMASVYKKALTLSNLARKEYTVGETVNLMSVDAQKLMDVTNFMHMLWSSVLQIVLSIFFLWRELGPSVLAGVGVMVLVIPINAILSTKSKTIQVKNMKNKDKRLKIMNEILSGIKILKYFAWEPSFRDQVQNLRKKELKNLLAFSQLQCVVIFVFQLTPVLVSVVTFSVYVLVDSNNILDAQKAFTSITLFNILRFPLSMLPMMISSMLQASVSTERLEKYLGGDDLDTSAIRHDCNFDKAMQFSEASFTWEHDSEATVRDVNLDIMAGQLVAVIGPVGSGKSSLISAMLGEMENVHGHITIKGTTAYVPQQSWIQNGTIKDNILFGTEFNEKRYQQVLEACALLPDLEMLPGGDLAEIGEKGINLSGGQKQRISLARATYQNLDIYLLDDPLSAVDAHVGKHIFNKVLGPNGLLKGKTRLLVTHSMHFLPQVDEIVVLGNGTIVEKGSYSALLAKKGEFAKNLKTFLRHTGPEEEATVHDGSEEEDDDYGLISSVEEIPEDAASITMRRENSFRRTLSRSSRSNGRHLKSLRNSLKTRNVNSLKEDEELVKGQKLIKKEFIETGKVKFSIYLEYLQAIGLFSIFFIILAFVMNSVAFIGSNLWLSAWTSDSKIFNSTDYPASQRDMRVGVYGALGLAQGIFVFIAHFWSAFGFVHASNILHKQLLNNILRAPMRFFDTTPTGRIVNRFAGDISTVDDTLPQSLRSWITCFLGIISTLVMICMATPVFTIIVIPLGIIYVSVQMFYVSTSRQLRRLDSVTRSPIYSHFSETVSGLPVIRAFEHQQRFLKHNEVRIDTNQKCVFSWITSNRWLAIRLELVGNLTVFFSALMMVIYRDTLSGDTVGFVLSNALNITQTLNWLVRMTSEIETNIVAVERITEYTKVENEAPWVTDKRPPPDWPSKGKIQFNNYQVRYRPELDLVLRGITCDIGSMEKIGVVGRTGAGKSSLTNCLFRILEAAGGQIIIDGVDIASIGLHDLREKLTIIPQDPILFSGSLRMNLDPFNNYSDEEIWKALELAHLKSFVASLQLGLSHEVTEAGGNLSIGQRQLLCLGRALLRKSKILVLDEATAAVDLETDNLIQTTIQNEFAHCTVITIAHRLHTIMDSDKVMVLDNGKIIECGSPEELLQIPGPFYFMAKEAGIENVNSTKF
Sequence of BSEP (O95342 whole entry): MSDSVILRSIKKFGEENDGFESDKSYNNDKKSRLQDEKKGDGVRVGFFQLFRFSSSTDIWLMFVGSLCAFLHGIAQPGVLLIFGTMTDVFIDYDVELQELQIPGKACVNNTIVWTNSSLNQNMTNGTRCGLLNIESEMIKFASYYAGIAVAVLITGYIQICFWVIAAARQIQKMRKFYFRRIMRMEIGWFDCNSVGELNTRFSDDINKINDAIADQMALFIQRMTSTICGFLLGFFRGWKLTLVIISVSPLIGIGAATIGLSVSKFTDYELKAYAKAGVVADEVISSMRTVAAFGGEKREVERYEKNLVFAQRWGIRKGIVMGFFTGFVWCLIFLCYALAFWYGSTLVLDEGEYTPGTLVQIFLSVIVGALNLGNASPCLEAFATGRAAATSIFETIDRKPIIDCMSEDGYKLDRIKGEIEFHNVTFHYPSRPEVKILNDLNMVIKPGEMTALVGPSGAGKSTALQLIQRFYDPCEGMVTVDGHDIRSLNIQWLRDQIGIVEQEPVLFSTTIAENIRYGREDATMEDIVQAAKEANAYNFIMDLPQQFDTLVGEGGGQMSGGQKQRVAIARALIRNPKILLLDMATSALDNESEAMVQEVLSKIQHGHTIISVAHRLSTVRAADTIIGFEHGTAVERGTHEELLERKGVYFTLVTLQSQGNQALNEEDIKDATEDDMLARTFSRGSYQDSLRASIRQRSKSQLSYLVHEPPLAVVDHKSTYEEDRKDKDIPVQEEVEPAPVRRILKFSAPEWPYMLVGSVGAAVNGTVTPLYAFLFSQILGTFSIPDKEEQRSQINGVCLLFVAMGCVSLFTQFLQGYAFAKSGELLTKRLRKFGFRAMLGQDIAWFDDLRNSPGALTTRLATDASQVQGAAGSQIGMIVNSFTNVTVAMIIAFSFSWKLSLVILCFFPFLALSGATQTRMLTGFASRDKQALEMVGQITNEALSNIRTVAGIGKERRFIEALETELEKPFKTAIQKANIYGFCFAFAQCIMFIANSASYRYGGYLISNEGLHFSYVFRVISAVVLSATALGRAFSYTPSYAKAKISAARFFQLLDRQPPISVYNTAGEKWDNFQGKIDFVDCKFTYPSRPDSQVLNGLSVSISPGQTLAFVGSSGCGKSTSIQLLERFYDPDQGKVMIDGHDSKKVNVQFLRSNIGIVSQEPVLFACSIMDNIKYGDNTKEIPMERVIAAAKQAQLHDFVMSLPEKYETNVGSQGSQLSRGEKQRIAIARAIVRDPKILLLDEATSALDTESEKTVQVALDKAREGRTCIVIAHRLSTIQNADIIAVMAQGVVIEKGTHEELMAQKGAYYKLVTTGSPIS
Sequence of MRP2/3 (O15438 whole entry): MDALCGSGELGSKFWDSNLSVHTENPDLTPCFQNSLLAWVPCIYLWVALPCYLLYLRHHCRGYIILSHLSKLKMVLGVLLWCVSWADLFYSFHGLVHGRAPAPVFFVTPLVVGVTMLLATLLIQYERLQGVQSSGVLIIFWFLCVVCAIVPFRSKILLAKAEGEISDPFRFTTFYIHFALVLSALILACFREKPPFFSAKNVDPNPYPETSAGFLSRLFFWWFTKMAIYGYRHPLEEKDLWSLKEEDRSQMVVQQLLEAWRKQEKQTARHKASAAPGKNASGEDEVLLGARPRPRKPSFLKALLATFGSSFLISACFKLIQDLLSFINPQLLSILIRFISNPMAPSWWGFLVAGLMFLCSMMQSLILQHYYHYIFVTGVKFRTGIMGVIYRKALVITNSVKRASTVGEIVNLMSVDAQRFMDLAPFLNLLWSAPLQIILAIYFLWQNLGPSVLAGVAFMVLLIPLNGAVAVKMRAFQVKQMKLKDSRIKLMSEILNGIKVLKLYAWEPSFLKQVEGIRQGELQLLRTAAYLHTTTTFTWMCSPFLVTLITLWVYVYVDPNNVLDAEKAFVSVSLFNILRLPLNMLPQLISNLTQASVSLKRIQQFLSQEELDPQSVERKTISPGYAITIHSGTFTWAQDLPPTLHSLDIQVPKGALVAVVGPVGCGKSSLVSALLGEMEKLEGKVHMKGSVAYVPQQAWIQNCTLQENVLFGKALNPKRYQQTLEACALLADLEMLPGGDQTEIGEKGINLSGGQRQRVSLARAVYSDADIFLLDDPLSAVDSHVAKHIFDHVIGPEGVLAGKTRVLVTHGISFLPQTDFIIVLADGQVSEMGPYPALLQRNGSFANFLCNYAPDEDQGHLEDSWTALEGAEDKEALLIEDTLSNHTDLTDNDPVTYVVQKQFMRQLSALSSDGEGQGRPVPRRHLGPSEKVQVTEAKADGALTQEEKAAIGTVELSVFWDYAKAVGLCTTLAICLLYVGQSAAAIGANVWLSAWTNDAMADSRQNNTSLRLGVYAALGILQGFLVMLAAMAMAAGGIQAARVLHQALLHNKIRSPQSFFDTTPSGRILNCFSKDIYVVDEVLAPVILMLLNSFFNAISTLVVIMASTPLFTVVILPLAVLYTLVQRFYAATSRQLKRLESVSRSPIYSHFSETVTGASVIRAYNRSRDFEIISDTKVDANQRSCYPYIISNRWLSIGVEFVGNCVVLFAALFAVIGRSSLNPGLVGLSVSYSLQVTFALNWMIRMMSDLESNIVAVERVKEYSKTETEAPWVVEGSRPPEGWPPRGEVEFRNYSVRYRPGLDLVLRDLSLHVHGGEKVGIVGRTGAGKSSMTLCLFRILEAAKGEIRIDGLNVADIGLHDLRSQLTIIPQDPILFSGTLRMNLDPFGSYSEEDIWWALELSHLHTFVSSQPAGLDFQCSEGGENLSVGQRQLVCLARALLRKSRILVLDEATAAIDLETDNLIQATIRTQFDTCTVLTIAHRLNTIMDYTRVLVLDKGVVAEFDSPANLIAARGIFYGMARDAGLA

COC(=O)N[C@H](C(=O)N1[C@H](c2nc3cc(-c4cc5ccc4CCc4ccc(c(-c6ccc7[nH]c([C@@H]8C[C@@H]9CCCC[C@@H]9N8C(=O)[C@@H](NC(=O)OC)C(C)C)nc7c6)c4)CC5)ccc3[nH]2)C[C@@H]2CCCC[C@@H]21)C(C)C [ODV, Odalasvir]
observed exposure versus anticipated ([1]; Cohort 1 / group (i)): higher than anticipated | decrease of exposure with dosing frequency ([1]; reducing ODV dosing from QD to QOD): proportionally | effect on CYP2C8 (CYP2C8): limited effect | inhibition of CYP3A4/5 (CYP3A4/5): no inhibition | inhibition of 1A2 (1A2): no inhibition | MRP2 inhibition (in words) (MRP2): no inhibition | MRP3 inhibition (in words) (MRP2/3): no inhibition | BSEP inhibition (in words) (BSEP): no inhibition | OATP1B3 inhibition (in words) (OATP1B3): no inhibition

CC(C)OC(=O)[C@H](C)N[P@](=O)(OC[C@@]1(F)O[C@@H](n2ccc(=O)[nH]c2=O)[C@](C)(O)[C@@H]1O)Oc1ccccc1 [Compound (III), isopropyl ((S)-(((2S,3S,4R,5R)-5-(2,4-dioxo-3,4-dihydropyrimidin-1 (2H)-yl)-2-fluoro-3,4-dihydroxy-4-methyltetrahydrofuran-2-yl)methoxy)(phenoxy)phosphoryl)-L-alaninate]
OATP1B3 inhibition (in words) (OATP1B3): no in vitro inhibition

COc1ccc2c(O[C@@H]3C[C@H]4C(=O)N[C@]5(C(=O)NS(=O)(=O)C6CC6)C[C@H]5/C=C\CCCCN(C)C(=O)[C@@H]4C3)cc(-c3nc(C(C)C)cs3)nc2c1C [SMV, Simeprevir, reference compound]
decrease of exposure with dose ([1]; in vivo): less than proportionally | observed exposure versus anticipated ([1]; in vivo): higher than anticipated | induction of CYP3A4 (CYP3A4): no induction | induction of CYP1A2 (CYP1A2): no induction | MRP2 inhibition (in words) (MRP2): strong/moderate | pIC50 (MRP2; read-out: MRP2 inhibition IC50): 4.72 to 5.22 | BSEP inhibition (in words) (BSEP): strong/moderate | pIC50 (BSEP; read-out: BSEP inhibition IC50): 5.77 | increase in exposure of Digoxin [2]: 35% | increase in Rosuvastatin exposure [3]: 3 fold
